Assay results: US11708283B2, “Metal-chelating compositions and their use in methods of removing or inhibiting barium scale” (CORNELL UNIVERSITY, priority 2018, dated 2023)

Experiments:
[1] = Hydroxyapatite challenge of Ba-L complexes (GFAAS); assay type: physicochemical; conditions: HAP suspension, pH 7.6, after 20 h
Procedure: HAP was suspended in solutions containing the complexes formed in situ (1.1 equiv L, 1.0 equiv Ba^2+) in pH 7.6 buffer, and the amount of Ba^2+ remaining in the liquid phase, reflecting intact Ba-L complex, was determined by graphite furnace atomic absorption spectroscopy (GFAAS). Whereas free Ba^2+ is adsorbed by HAP in less than 10 min, Ba-macropa and Ba-macropaquin respectively retained 82% and 68% of this ion after 20 h. […] This feature may be important for Ba^2+ chelation in industrial applications, such as scale dissolution, because numerous other metal ions are present during these processes. […]
More specifically, hydroxyapatite (HAP, Ca5(PO4)3(OH)) challenges were carried out in 500 mM Tris buffer. […] The concentrations of these stocks were verified by quantitative NMR (n=2 for each ligand) using two independently prepared standards of potassium hydrogen phthalate in D2O. […] The concentration of macroquin-SO3 was determined by UV-vis spectrophotometry from the average of two titrations with Ba^2+. […] The absorbance at 320 nm was monitored until spectral changes ceased, at which point [Ba^2+]=[L]. From the volume of titrant added, the concentration of the stock solution of macroquin-SO3 was calculated to be 8.17 mM, which was within 9% of the theoretical value of 8.96 mM based on mass. […]

[2] = CRC Handbook; cited from earlier work

| Structure (SMILES) | Ba^2+ remaining in the liquid phase (intact Ba-L complex) [1] [%] | Ksp [2] |
| --- | --- | --- |
| O=C([O-])c1cccc(CN2CCOCCOCCN(Cc3cccc(C(=O)[O-])n3)CCOCCOCC2)n1.[Ba+2] [Ba-macropa] | 82 | – |
| O=S(=O)([O-])[O-].[Ba+2] [BaSO4] | – | 1.08×10^−10 |
